No end group written: not given here.
Biological target: HLA-A*6801 (Homo sapiens, UniProt P04439, A269V/D185E/E176V/E277Q/E87N/F33Y/G231S/I121M/I166T/I218V/L180W/L300P/L318F/N151K/P208A/P217A/Q86R/R169H/T345S)
Assay: biochemical
Format: binding
Settings: not given

First: RVHNIAGHYR
Second: KTLGISYGRKK
The IC50 of the first is 36-fold lower: 18 nM for the first, 647 nM for the second.

Compared with RFHNIAGHYK, PAAYAAQGYK is 29-fold higher in IC50: 23 nM for the first, 666 nM for the second. The first is the more potent here.

KMGPGPGK and LVISYGRKKRR are within 1.5-fold of each other in IC50: 4160 nM for the first, 4660 nM for the second.

QMGPGPGNFK was tested, and the IC50 was 63 nM.

Same assay, conditions: read-out: A*6801 binding affinity (expressed as an IC50)

Going from ETGPSGQPGK to VTVKTEGQLK, the IC50 falls from 50 nM to 30 nM (1.7-fold). The second is the more potent here.

Biological target: HLA-A*3301 (Homo sapiens, UniProt P04439, A270S/D185E/E176V/E277Q/E87N/F33T/G231S/H175R/I121M/I218V/I322F/K168Q/K210R/L300P/L318F/M331R/P217A/Q86R/Q94H/R138Q/T323A/T345S/T97I/V358M/Y195H)
Assay: biochemical
Format: binding
Settings: not given

Going from LTYRDDFPY to GVGPGPGLK, the IC50 rises from 20200 nM to greater than 112000 nM.

First: RTLSKISEYR
Second: VTGPGPGPVWK
The IC50 of the first is lower: 189 nM for the first, greater than 103000 nM for the second. The first is the more potent here.

Compared with FVDLTIVYR, AFTDLTIVYK is 22-fold higher in IC50: 430 nM for the first, 9380 nM for the second.

First: VSIRVGGQTR
Second: DVSHFLKEK
The IC50 of the first is 37-fold higher: 8590 nM for the first, 232 nM for the second. The second is the more potent here.

Going from KTLEERVKR to AVGPGPGLK, the IC50 rises from 1360 nM to 75800 nM (56-fold).

Going from HGAITSSNTK to AVCWRPRRK, the IC50 falls from greater than 22900 nM to 7950 nM. The second is the more potent here.

Compared with TFVHEIELK, GVNHQHLPK is 3.8-fold higher in IC50: 4130 nM for the first, 15600 nM for the second. The first is the more potent here.

First: SIPHAACHR
Second: ALERLLSLKK
The IC50 of the first is 72-fold lower: 253 nM for the first, 18300 nM for the second.

First: KFLEERVKK
Second: MFQDPQERPRK
The IC50 of the first is 23-fold higher: 9740 nM for the first, 419 nM for the second. The second is the more potent here.

SQVSNSDSYK and RLLSKISEYK cannot be ordered by IC50: greater than 17400 nM for the first, 40000 nM for the second.

Going from CFLFYSKVRK to TVQGPGPGEK, the IC50 rises from 315 nM to 103000 nM (330-fold). The first is the more potent here.

Going from VQLDIQSTR to KQVQMMIMIK, the IC50 falls from 4590 nM to 1230 nM (3.7-fold).

First: RFLSKISEYK
Second: CLLFYSKVRR
The IC50 of the first is 26-fold higher: 10200 nM for the first, 386 nM for the second.

Going from RFLSKISEYR to GVIYIMIISK, the IC50 rises from 436 nM to 1570 nM (3.6-fold).

Compared with KTLGISYGRKK, TTLEKLTNR is 630-fold lower in IC50: 23400 nM for the first, 37 nM for the second.

Going from RFHNIAGHYK to PVVCSMEYK, the IC50 rises from 80 nM to 22600 nM (280-fold). The first is the more potent here.

Compared with PAAYAAQGYK, AQPATADYK is lower in IC50: greater than 111000 nM for the first, 58900 nM for the second.

KMGPGPGK and KAGPGGYPRK cannot be ordered by IC50: 106000 nM for the first, greater than 17800 nM for the second.

Going from AVDGPGPGK to QMGPGPGNFK, the IC50 falls from greater than 112000 nM to 101000 nM. The second is the more potent here.

RVLSKISEYR showed an IC50 of 197 nM.

Biological target: HLA-A*3101 (Homo sapiens, UniProt P04439, A270S/D185E/E176V/E277Q/F33T/G231S/G80R/H175R/I121M/I218V/I322F/K168Q/L300P/L318F/M331R/P217A/Q94H/R138Q/T323A/T345S/T97I/V358M)
Assay: biochemical
Format: binding
Settings: not given

Going from LTYRDDFPY to RTLSKISEYR, the IC50 falls from greater than 71100 nM to 52 nM. The second is the more potent here.

First: VTGPGPGPVWK
Second: FVDLTIVYR
The IC50 of the first is 5.5-fold higher: 13000 nM for the first, 2380 nM for the second.

Compared with AFTDLTIVYK, VSIRVGGQTR is 8.5-fold lower in IC50: 3950 nM for the first, 466 nM for the second. The second is the more potent here.

Going from DVSHFLKEK to KTLEERVKR, the IC50 falls from greater than 17800 nM to 37 nM.

First: AVGPGPGLK
Second: HGAITSSNTK
The IC50 of the first is lower: 128 nM for the first, greater than 16100 nM for the second.

Compared with TFVHEIELK, SIPHAACHR is 36-fold lower in IC50: 8410 nM for the first, 236 nM for the second.

Compared with ALERLLSLKK, KFLEERVKK is 1100-fold lower in IC50: 33600 nM for the first, 30 nM for the second. The second is the more potent here.

Compared with MFQDPQERPRK, SQVSNSDSYK is 41-fold higher in IC50: 604 nM for the first, 24600 nM for the second. The first is the more potent here.

First: RLLSKISEYK
Second: CFLFYSKVRK
The IC50 of the first is 2-fold higher: 158 nM for the first, 81 nM for the second. The second is the more potent here.

Compared with TVQGPGPGEK, KQVQMMIMIK is 2.1-fold lower in IC50: 9870 nM for the first, 4630 nM for the second. The second is the more potent here.

Going from RFLSKISEYK to CLLFYSKVRR, the IC50 rises from 42 nM to 159 nM (3.8-fold). The first is the more potent here.

First: RFLSKISEYR
Second: RVHNIAGHYR
The IC50 of the first is 1.5-fold higher: 33 nM for the first, 22 nM for the second.

Going from GVIYIMIISK to KTLGISYGRKK, the IC50 falls from 18800 nM to 91 nM (210-fold). The second is the more potent here.

First: TTLEKLTNR
Second: RFHNIAGHYK
The IC50 of the first is 16-fold higher: 42 nM for the first, 2.6 nM for the second. The second is the more potent here.

Compared with PVVCSMEYK, PAAYAAQGYK is 16-fold lower in IC50: 331000 nM for the first, 20300 nM for the second.

Compared with KMGPGPGK, KAGPGGYPRK is 9.4-fold higher in IC50: 1140 nM for the first, 10700 nM for the second. The first is the more potent here.

Going from AVDGPGPGK to LVISYGRKKRR, the IC50 falls from 36800 nM to 562 nM (65-fold). The second is the more potent here.

First: QMGPGPGNFK
Second: RVLSKISEYR
The IC50 of the first is 110-fold higher: 2680 nM for the first, 24 nM for the second. The second is the more potent here.

Same assay, conditions: read-out: A*3101 binding affinity (expressed as an IC50)

Going from ETGPSGQPGK to VTVKTEGQLK, the IC50 falls from greater than 22500 nM to 4620 nM. The second is the more potent here.

Biological target: HLA-A*0301 (Homo sapiens, UniProt P04439)
Assay: biochemical
Format: binding
Settings: not given

First: LTYRDDFPY
Second: GVGPGPGLK
The IC50 of the first is 180-fold higher: 8260 nM for the first, 47 nM for the second.

Compared with RTLSKISEYR, VTGPGPGPVWK is 38-fold higher in IC50: 77 nM for the first, 2900 nM for the second.

Compared with FVDLTIVYR, AFTDLTIVYK is 42-fold lower in IC50: 29700 nM for the first, 701 nM for the second. The second is the more potent here.

Compared with DVSHFLKEK, KTLEERVKR is lower in IC50: greater than 9300 nM for the first, 1960 nM for the second.

Going from AVGPGPGLK to HGAITSSNTK, the IC50 rises from 18 nM to 2840 nM (160-fold). The first is the more potent here.

Going from AVCWRPRRK to TFVHEIELK, the IC50 rises from 34 nM to 4430 nM (130-fold).

Going from GVNHQHLPK to KFLEERVKK, the IC50 rises from 26 nM to 5340 nM (210-fold).

Going from MFQDPQERPRK to SQVSNSDSYK, the IC50 falls from 15500 nM to 1660 nM (9.3-fold).

Going from RLLSKISEYK to TVQGPGPGEK, the IC50 rises from 15 nM to 218 nM (15-fold).

Going from VQLDIQSTR to KQVQMMIMIK, the IC50 falls from 15100 nM to 264 nM (57-fold). The second is the more potent here.

Going from RFLSKISEYK to RFLSKISEYR, the IC50 rises from 31 nM to 1640 nM (53-fold). The first is the more potent here.

First: RVHNIAGHYR
Second: GVIYIMIISK
The IC50 of the first is 26-fold lower: 30 nM for the first, 777 nM for the second.

First: KTLGISYGRKK
Second: TTLEKLTNR
The IC50 of the first is 38-fold lower: 52 nM for the first, 1990 nM for the second.

Going from RFHNIAGHYK to PAAYAAQGYK, the IC50 rises from 25 nM to 950 nM (38-fold).

Compared with AQPATADYK, KMGPGPGK is 42-fold lower in IC50: 3500 nM for the first, 84 nM for the second.

Compared with KAGPGGYPRK, LVISYGRKKRR is higher in IC50: 62 nM for the first, greater than 11700 nM for the second. The first is the more potent here.

QMGPGPGNFK and RVLSKISEYR are within 1.5-fold of each other in IC50: 49 nM for the first, 34 nM for the second.

Same assay, conditions: read-out: A*0301 binding affinity (expressed as an IC50)

Compared with ETGPSGQPGK, VTVKTEGQLK is lower in IC50: greater than 14600 nM for the first, 647 nM for the second. The second is the more potent here.

Biological target: HLA-A*1101 (Homo sapiens, UniProt P04439, A114D/D185E/E176A/F33Y/L180Q/S129P/T187R)
Assay: biochemical
Format: binding
Settings: not given

First: LTYRDDFPY
Second: GVGPGPGLK
The IC50 of the first is 20-fold higher: 82 nM for the first, 4 nM for the second.

Going from RTLSKISEYR to VTGPGPGPVWK, the IC50 falls from 100 nM to 24 nM (4.2-fold).

Compared with FVDLTIVYR, VSIRVGGQTR is 22-fold lower in IC50: 5310 nM for the first, 241 nM for the second.

Compared with AVGPGPGLK, GVNHQHLPK is 2.1-fold higher in IC50: 3.6 nM for the first, 7.7 nM for the second.

First: ALERLLSLKK
Second: KFLEERVKK
The IC50 of the first is 2.7-fold lower: 822 nM for the first, 2230 nM for the second.

Going from MFQDPQERPRK to SQVSNSDSYK, the IC50 falls from 8570 nM to 83 nM (100-fold).

RLLSKISEYK and CFLFYSKVRK are within 1.5-fold of each other in IC50: 65 nM for the first, 96 nM for the second.

Going from TVQGPGPGEK to VQLDIQSTR, the IC50 rises from 3.4 nM to 2920 nM (860-fold).

Compared with CLLFYSKVRR, RVHNIAGHYR is 9.7-fold lower in IC50: 204 nM for the first, 21 nM for the second. The second is the more potent here.

Compared with TTLEKLTNR, PVVCSMEYK is 10-fold lower in IC50: 817 nM for the first, 80 nM for the second. The second is the more potent here.

Going from AQPATADYK to KAGPGGYPRK, the IC50 falls from 109 nM to 43 nM (2.5-fold). The second is the more potent here.

Compared with AVDGPGPGK, LVISYGRKKRR is 460-fold higher in IC50: 19 nM for the first, 8670 nM for the second. The first is the more potent here.

With RVLSKISEYR the IC50 was 84 nM.

Same assay, conditions: read-out: A*1101 binding affinity (expressed as an IC50)

First: ETGPSGQPGK
Second: VTVKTEGQLK
The IC50 of the first is 150-fold higher: 3500 nM for the first, 23 nM for the second. The second is the more potent here.

Reference: patent US20060079453A1, “Hla binding peptides and their uses” (priority 2002, published 2006)
